Measurements taken from patent publication US8828401B2, “Cytotoxic peptides and antibody drug conjugates thereof” (Pfizer Inc., priority 2011, dated 2014).
Starred links: 1 amine or outer side, 2 acyl side, 3 side chain; linkers in the order of their positions; H or OH if unused. Non-standard residues stand in square brackets, D forms with d. Residues, ends and D or L forms follow the SMILES beside them. *: point of attachment. Dolaproine = CO[C@@H]([C@@H]1CCCN1)[C@@H](C)C(=O)O; X2 = O=C([C@H](N[*:1])C1(c2ccccc2)CC1)[*:2]; Dil = CC[C@H](C)[C@H](NC)[C@@H](CC(=O)O)OC; Phe(4-NH2) = Nc1ccc(C[C@H](N)C(=O)O)cc1; X9 = Cc1cc(-c2nc3cc(F)ccc3s2)ccc1N*; NMeαMePro = CN1CCC[C@@]1(C)C(=O)*; αMeP = C[C@@]1(C(=O)O)CCCN1; X13 = c1ccc(C2(CN*)CC2)cc1; X1 = CN1CCC[C@]1(C)C(=O)*; NMeAib = CNC(C)(C)C(=O)O; Aib = CC(C)(N)C(=O)O; NHtBu = CC(C)(C)N*; X3 = C1C2CC1(N*)C2; OtBu = CC(C)(C)O*

Key:
Assay in all cases: In vitro cell assay, MTS cell viability 96 hours after treatment
Type in all cases: cell-based
N87 (gastric cancer) = conditions: read-out: N87 GMEAN IC50, N87 cells; geometric mean; cytotoxic peptides
Description: (§1) Cells were treated with 3-fold serially diluted antibody-drug conjugates or free compounds (i.e., no antibody conjugated to the drug) in duplicate at 10 concentrations. Cell viability was determined by CellTiter 96® AQueous One Solution Cell Proliferation MTS Assay (Promega, Madison Wis.) 96 hours after treatment. Relative cell viability was determined as percentage of untreated control.

BT474 (breast cancer) = conditions: Homo sapiens, BT-474, BT474 cells; geometric mean; cytotoxic peptides; read-out: BT474 GMEAN IC50
Description: as §1

[1] = test system: MDA-MB-361-DYT2 (breast cancer); conditions: read-out: MDA-MB-361-DYT2 GMEAN IC50, MDA-MB-361-DYT2 cells; geometric mean; cytotoxic peptides
Description: as §1

| Compound | IC50 (N87 (gastric cancer)) [pM] | IC50 (BT474 (breast cancer)) [pM] | IC50 [1] [pM] |
| --- | --- | --- | --- |
| CC[C@H](C)[C@@H]([C@@H](CC(=O)N1CCC[C@H]1[C@H](OC)[C@@H](C)C(=O)NC12CC(C1)C2)OC)N(C)C(=O)[C@@H](NC(=O)C(C)(C)N)C(C)C [#221] (H-[Aib]V[Dil][Dolaproine]-X3) | 87900 | 32400 | 65400 |
| CC[C@H](C)[C@@H]([C@@H](CC(=O)N1CCC[C@H]1[C@H](OC)[C@@H](C)C(=O)N[C@@H](C(=O)O)C1(c2ccccc2)CC1)OC)N(C)C(=O)[C@@H](NC(=O)C(C)(C)N)C(C)C [#230] (H-[Aib]V[Dil][Dolaproine][X2]-OH) | 89100 | ≥ 100000 | 70200 |
| CC[C@H](C)[C@@H]([C@@H](CC(=O)N1CCC[C@H]1[C@H](OC)[C@@H](C)C(=O)NCCC1C=CC=CC=C1)OC)N(C)C(=O)[C@@H](NC(=O)[C@]1(C)CCCCN1)C(C)C [#178, (2S)-N-[(2S)-1-{[(3R,4S,5S)-1-{(2S)-2-[(1R,2R)-3-{[2-(cyclohepta-2,4,6-trien-1-yl)ethyl]amino}-1-methoxy-2-methyl-3-oxopropyl]pyrrolidin-1-yl}-3-methoxy-5-methyl-1-oxoheptan-4-yl](methyl)amino}-3-methyl-1-oxobutan-2-yl]-2-methylpiperidine-2-carboxamide] | 1260 | 968 | 911 |
| CC[C@H](C)[C@@H]([C@@H](CC(=O)N1CCC[C@H]1[C@H](OC)[C@@H](C)C(=O)N[C@@H](Cc1ccccc1)C(=O)OC)OC)N(C)C(=O)[C@@H](NC(=O)[C@@]1(F)CCNC1)C(C)C [#172, methyl N-{(2R,3R)-3-[(2S)-1-{(3R,4S,5S)-4-[(N-{[(3R)-3-fluoropyrrolidin-3-yl]carbonyl}-L-valyl)(methyl)amino]-3-methoxy-5-methylheptanoyl}pyrrolidin-2-yl]-3-methoxy-2-methylpropanoyl}-L-phenylalaninate] | 144 | 57 | 86 |
| CC[C@H](C)[C@@H]([C@@H](CC(=O)N1CCC[C@H]1[C@H](OC)[C@@H](C)C(=O)N[C@@H](Cc1ccccc1)C(=O)NC(C)(C)C)OC)N(C)C(=O)[C@@H](NC(=O)C(C)(C)NC)C(C)C [#144, N,2-dimethylalanyl-N-{(1S,2R)-4-{(2S)-2-[(1R,2R)-3-{[(1S)-1-benzyl-2-(tert-butylamino)-2-oxoethyl]amino}-1-methoxy-2-methyl-3-oxopropyl]pyrrolidin-1-yl}-2-methoxy-1-[(1S)-1-methylpropyl]-4-oxobutyl}-N-methyl-L-valinamide] (H-[NMeAib]V[Dil][Dolaproine]F-NHtBu) | – | 172 | 174 |
| CC[C@H](C)[C@@H]([C@@H](CC(=O)N1CCC[C@H]1[C@H](OC)[C@@H](C)C(=O)N[C@@H](Cc1ccccc1)C(=O)OC)OC)N(C)C(=O)[C@@H](NC(=O)C(C)(C)CNC)C(C)C [#155, methyl N-{(2R,3R)-3-[(2S)-1-{(3R,4S,5S)-4-[{N-[2,2-dimethyl-3-(methylamino)propanoyl]-L-valyl}(methyl)amino]-3-methoxy-5-methylheptanoyl}pyrrolidin-2-yl]-3-methoxy-2-methylpropanoyl}-L-phenylalaninate] | 875 | 323 | 318 |
| CC[C@H](C)[C@@H]([C@@H](CC(=O)N1CCC[C@H]1[C@H](OC)[C@@H](C)C(=O)N[C@@H](Cc1ccccc1)C(=O)OC)OC)N(C)C(=O)[C@@H](NC(=O)[C@@]1(C)CCCN1C)C(C)C [#236] (X1-V[Dil][Dolaproine]F-OMe) | 23 | 20 | 10 |
| CC[C@H](C)[C@@H]([C@@H](CC(=O)N1CCC[C@H]1[C@H](OC)[C@@H](C)C(=O)N[C@@H](Cc1ccccc1)C(=O)OC)OC)N(C)C(=O)[C@@H](NC(=O)[C@]1(C)CCCN1C)C(C)C [#209, 1,2-dimethyl-L-prolyl-N-[(3R,4S,5S)-3-methoxy-1-{(2S)-2-[(1R,2R)-1-methoxy-3-{[(2S)-1-methoxy-1-oxo-3-phenylpropan-2-yl]amino}-2-methyl-3-oxopropyl]pyrrolidin-1-yl}-5-methyl-1-oxoheptan-4-yl]-N-methyl-L-valinamide] (NMeαMePro-V[Dil][Dolaproine]F-OMe) | 67 | 67 | 58 |
| CC[C@H](C)[C@@H]([C@@H](CC(=O)N1CCC[C@H]1[C@H](OC)[C@@H](C)C(=O)N[C@@H](Cc1ccccc1)C(=O)OC)OC)N(C)C(=O)[C@@H](NC(=O)[C@]1(C)CCCN1)C(C)C [#117, 2-methyl-L-prolyl-N-{(1S,2R)-4-{(2S)-2-[(1R,2R)-3-{[(1S)-1-benzyl-2-methoxy-2-oxoethyl]amino}-1-methoxy-2-methyl-3-oxopropyl]pyrrolidin-1-yl}-2-methoxy-1-[(1S)-1-methylpropyl]-4-oxobutyl}-N-methyl-L-valinamide] (H-[αMeP]V[Dil][Dolaproine]F-OMe) | – | 96 | 118 |
| CC[C@H](C)[C@@H]([C@@H](CC(=O)N1CCC[C@H]1[C@H](OC)[C@@H](C)C(=O)N[C@@H](Cc1ccccc1)C(=O)OC(C)(C)C)OC)N(C)C(=O)[C@@H](NC(=O)C(C)(C)NC)C(C)C [#130, N,2-dimethylalanyl-N-[(3R,4S,5S)-1-{(2S)-2-[(1R,2R)-3-{[(2S)-1-tert-butoxy-1-oxo-3-phenylpropan-2-yl]amino}-1-methoxy-2-methyl-3-oxopropyl]pyrrolidin-1-yl}-3-methoxy-5-methyl-1-oxoheptan-4-yl]-N-methyl-L-valinamide] (H-[NMeAib]V[Dil][Dolaproine]F-OtBu) | – | 50 | 39 |
| CC[C@H](C)[C@@H]([C@@H](CC(=O)N1CCC[C@H]1[C@H](OC)[C@@H](C)C(=O)N[C@@H](Cc1ccccc1)c1nccs1)OC)N(C)C(=O)[C@@H](NC(=O)[C@]1(F)CCNC1)C(C)C [#194, N˜2˜-{[(3S)-3-fluoropyrrolidin-3-yl]carbonyl}-N-[(3R,4S,5S)-3-methoxy-1-{(2S)-2-[(1R,2R)-1-methoxy-2-methyl-3-oxo-3-{[(1S)-2-phenyl-1-(1,3-thiazol-2-yl)ethyl]amino}propyl]pyrrolidin-1-yl}-5-methyl-1-oxoheptan-4-yl]-N-methyl-L-valinamide] | – | 134 | 198 |
| CC[C@H](C)[C@@H]([C@@H](CC(=O)N1CCC[C@H]1[C@H](OC)[C@@H](C)C(=O)N[C@@H](Cc1ccc(N)cc1)C(=O)OC)OC)N(C)C(=O)[C@@H](NC(=O)[C@@]1(C)CCCN1C)C(C)C [#201, 1,2-dimethyl-D-prolyl-N-[(3R,4S,5S)-1-{(2S)-2-[(1R,2R)-3-{[(2S)-3-(4-aminophenyl)-1-methoxy-1-oxopropan-2-yl]amino}-1-methoxy-2-methyl-3-oxopropyl]pyrrolidin-1-yl}-3-methoxy-5-methyl-1-oxoheptan-4-yl]-N-methyl-L-valinamide] (X1-V[Dil][Dolaproine][Phe(4-NH2)]-OMe) | – | 144 | 121 |
| CC[C@H](C)[C@@H]([C@@H](CC(=O)N1CCC[C@H]1[C@H](OC)[C@@H](C)C(=O)NCCC1C=CC=CC=C1)OC)N(C)C(=O)[C@@H](NC(=O)[C@@]1(C)CCCCN1)C(C)C [#180, (2R)—N-[(2S)-1-{[(3R,4S,5S)-1-{(2S)-2-[(1R,2R)-3-{[2-(cyclohepta-2,4,6-trien-1-yl)ethyl]amino}-1-methoxy-2-methyl-3-oxopropyl]pyrrolidin-1-yl}-3-methoxy-5-methyl-1-oxoheptan-4-yl](methyl)amino}-3-methyl-1-oxobutan-2-yl]-2-methylpiperidine-2-carboxamide] | – | 159 | 113 |
| CC[C@H](C)[C@@H]([C@@H](CC(=O)N1CCC[C@H]1[C@H](OC)[C@@H](C)C(=O)N[C@@H](Cc1ccccc1)C(=O)Nc1ccc(-c2nc3cc(F)ccc3s2)cc1C)OC)N(C)C(=O)[C@@H](NC(=O)C(C)(C)N)C(C)C [#235] (H-[Aib]V[Dil][Dolaproine]F-X9) | – | 852 | 1280 |
| CC[C@H](C)[C@@H]([C@@H](CC(=O)N1CCC[C@H]1[C@H](OC)[C@@H](C)C(=O)NCC1(c2ccccc2)CC1)OC)N(C)C(=O)[C@@H](NC(=O)C(C)(C)N)C(C)C [#60, 2-methylalanyl-N-[(3R,4S,5S)-3-methoxy-1-{(2S)-2-[(1R,2R)-1-methoxy-2-methyl-3-oxo-3-{[(1-phenylcyclopropyl)methyl]amino}propyl]pyrrolidin-1-yl}-5-methyl-1-oxoheptan-4-yl]-N-methyl-L-valinamide] (H-[Aib]V[Dil][Dolaproine]-X13) | – | 524 | 957 |
| CC[C@H](C)[C@@H]([C@@H](CC(=O)N1CCC[C@H]1[C@H](OC)[C@@H](C)C(=O)N[C@@H](Cc1ccccc1)C(=O)OC)OC)N(C)C(=O)[C@@H](NC(=O)[C@@]1(C)CCCCN1)C(C)C (single isomer, unassigned) [#159] | 75 | 70 | – |
| CC[C@H](C)[C@@H]([C@@H](CC(=O)N1CCC[C@H]1[C@H](OC)[C@@H](C)C(=O)N[C@@H](Cc1ccccc1)c1nccs1)OC)N(C)C(=O)[C@@H](NC(=O)[C@@]1(F)CCNC1)C(C)C [#192, N˜2˜-{[(3R)-3-fluoropyrrolidin-3-yl]carbonyl}-N-[(3R,4S,5S)-3-methoxy-1-{(2S)-2-[(1R,2R)-1-methoxy-2-methyl-3-oxo-3-{[(1S)-2-phenyl-1-(1,3-thiazol-2-yl)ethyl]amino}propyl]pyrrolidin-1-yl}-5-methyl-1-oxoheptan-4-yl]-N-methyl-L-valinamide] | – | 262 | 408 |
